Source: patent US20040116348A1, “Polymer-linker-drug conjugates for targeted drug delivery” (priority 2002, published 2004)

Assays:
[1] = test system: KK-47 (a human bladder tumor cell line); test: MTT cytotoxicity, KK-47; type: cell-based
Method: (§1) Open circles in FIGS. 6A-F represent free doxorubicin and closed circles represent LIG-doxorubicin.
(§2) Cell survival was assayed using an indirect colorimetric […] (MTT assay, e.g., see Alley et al., Cancer Res. 48:589, 1988). The tetrazolium salt MTT is metabolized by NAD-dependent dehydrogenase to form a colored reaction product and the amount of dye formed directly correlates with the number of viable cells. The formula for calculating % survival is given by:
(§3) %survival=(Ti−Tz)/(C−Tz) if Ti≧Tz or
(§4) %survival=(Ti−Tz)/Tz if Ti<Tz
(§5) where Ti=Net MTT reading of test growth in the presence of drugs; Tz=Net MTT reading at time zero with respect to the drug test; and C=Net MTT reading of control growth (see Grever et al., Seminars in Oncology, 19:622, 1992 and Boyd and Paull, Drug Development Research 34:91, 1995).

[2] = test system: PC-3 (a human prostate tumor cell line); test: MTT cytotoxicity, PC-3; type: cell-based
Method: as §1, §2, §3, §4, §5

[3] = test system: U-87 (a human glioblastoma cell line); test: MTT cytotoxicity, U-87; type: cell-based
Method: as §1, §2, §3, §4, §5

[4] = test system: MGH-U1 (a human bladder cell line); test: MTT cytotoxicity, MGH-U1; type: cell-based
Method: as §1, §2, §3, §4, §5

[5] = test system: HT-1080 (a human fibrosarcoma line); test: MTT cytotoxicity, HT-1080; type: cell-based
Method: as §1, §2, §3, §4, §5
(§6) The cytotoxicity of methotrexate and various peptidyl-methotrexates were compared in order to assess bulk tolerance. The peptidyl-methotrexates were prepared by linking short peptides of three to four amino acids to methotrexate. […] Methotrexate was covalently coupled to the N-terminal end of the peptides via the γ-carboxyl of its glutamic acid (Nagy et al., Proc. Nat. Acad. Sci. USA 90:6373, 1993). […] Cytotoxicity was assayed as described above in Example 4. […] Example 8 describes the synthesis of certain dextran-oligopeptide-methotrexate conjugates.

[6] = test system: BT-20 (a human breast carcinoma line); test: MTT cytotoxicity, BT-20; type: cell-based
Method: as §1, §2, §3, §4, §5, §6

human tumor cell lines = test: MTT cytotoxicity, overall statement over the panel of human tumor cell lines; type: cell-based; details: three human tumor cell lines
Method: as §2, with “by: […]” for “by:”

[7] = test system: RT-112 (human urinary bladder transitional carcinoma line); test: MTT cytotoxicity, RT-112; type: cell-based
Method: as §2, §3, §4, §5
The cytotoxicity of methotrexate and various peptidyl-methotrexates were compared in order to assess bulk tolerance. The peptidyl-methotrexates were prepared by linking short peptides of three to four amino acids to methotrexate. The peptides were chosen to represent appropriate cleavage fragments from the MMP-2 sensitive substrate peptide IPVGLIG that was characterized in Examples 1-2. Methotrexate was covalently coupled to the N-terminal end of the peptides via the γ-carboxyl of its glutamic acid (Nagy et al., Proc. Nat. Acad. Sci. USA 90:6373, 1993). […]

[8] = Body weight change as indicator of toxic side effects in SCID mice bearing HT-1080 tumors; details: 50 mg methotrexate/kg i.p. on day 1, 8 and 15
Method: After 7-10 days, tumors of size 150-300 mm^3 were established on each mouse. […] Weight and tumor size were monitored three times a week. Tumor size was calculated as width^2×length×0.52. […] As a second control, another group of mice were injected with phosphate buffered saline. Each group included three mice.

HT-1080 tumors = test: In vivo anti-tumor efficacy in SCID mice bearing HT-1080 tumors; details: end of study; 50 mg methotrexate/kg i.p. on day 1, 8 and 15
Method: Each group included three mice.
The dosage chosen for these experiments was based on the reported optimum dosage of free methotrexate for treating tumor-bearing mice (Burger et al., Int. J. Cancer 92:718, 2001). Three weekly injections at 50 mg of methotrexate/kg of body weight was half the maximum tolerated dosage. In another set of experiments the dosage was increased to three weekly injections of 100 mg/kg, or to injections of 50 mg/kg twice per week.

Structure (SMILES)	cytotoxicity (% survival, MTT) [1]	cytotoxicity (% survival, MTT) [2]	cytotoxicity (% survival, MTT) [3]	cytotoxicity (% survival, MTT) [4]	cytotoxicity (% survival, MTT) [5]	cytotoxicity (% survival, MTT) [6]	cytotoxicity relative to free methotrexate (human tumor cell lines)	cytotoxicity (% survival, MTT) [7]	body weight drop compared to initial weight [8]	tumor growth suppression compared to saline control (HT-1080 tumors)
CC[C@H](C)[C@H](NC(=O)[C@@H](N)CC(C)C)C(=O)NCC(=O)N[C@H]1C[C@H](O[C@H]2C[C@](O)(C(=O)CO)Cc3c(O)c4c(c(O)c32)C(=O)c2c(OC)cccc2C4=O)O[C@@H](C)[C@H]1O [LIG-doxorubicin]	cytotoxic	cytotoxic	cytotoxic	cytotoxic	cytotoxic	cytotoxic				
CC(C)[C@H](NC(=O)[C@@H]1CCCN1C(=O)CC[C@H](NC(=O)c1ccc(N(C)Cc2cnc3nc(N)nc(N)c3n2)cc1)C(=O)O)C(=O)NCC(=O)O [methotrexate-PVG]					cytotoxic	cytotoxic	comparable	cytotoxic		
CN(Cc1cnc2nc(N)nc(N)c2n1)c1ccc(C(=O)N[C@@H](CCC(=O)O)C(=O)O)cc1 [methotrexate]									13%	48%
